# Measurements taken from PMC10683023, “Targeting Glial Cells by Organic Anion-Transporting Polypeptide 1C1 (OATP1C1)-Utilizing L-Thyroxine-Derived Prodrugs” (Journal of Medicinal Chemistry, 2023).
# Key:
# [1] = system: human U-87MG glioma cells; assay: Concentration-dependent cellular uptake into human U-87MG glioma cells; assay type: cell-based; settings: 5–400 μM, 30 min, 37 °C
# Method: U-87MG (ATCC, HTB-14, unknown origin) was purchased from Lonza (Basel, Switzerland). The cells were cultured in standard conditions (37 °C, 5% CO2) using Dulbecco’s modified Eagle’s medium (DMEM) supplemented with L-glutamine (2.0 mM), heat-inactivated fetal bovine serum (FBS) (10%), penicillin (50 U/mL), and streptomycin (50 μg/mL). U-87MG cells (passages 8–25) were seeded at a density of 1 × 10^5 cells/well onto 24-well plates and used for the uptake experiments 1 day after seeding. All of the studies were carried out as three biological replicates from the same cell passage.
# (§1) After removal of the culture medium, U-87MG human glioma cells and mouse primary astrocytes were carefully washed with prewarmed Hank’s balanced salt solution (HBSS) containing 125.0 mM NaCl (or choline chloride in Na^+ free conditions), 4.8 mM KCl, 1.2 mM MgSO4, 1.2 mM KH2PO4, 1.3 mM CaCl2, 5.6 mM glucose, and 25.0 mM 4-(2-hydroxyethyl)piperazine-1-ethanesulfonic acid (HEPES) with the pH adjusted to either 7.4 or pH 8.5 with 1 M NaOH (or KOH in sodium-free conditions). In the experiments at lower pH (4.5–6.5), 25.0 mM HEPES was replaced by 2-(N-morpholino) ethanesulfonic acid (MES), and the pH was adjusted to 4.5, 5.5, and 6.5 by 1.0 M NaOH. Preincubation was done with 500 μL of prewarmed HBSS at 37 °C for 10 min before adding the substrate for the uptake experiments. The functionality of OATP1C1 in human glioma U-87MG cells was studied with a known substrate (L-thyroxine, T4) and of oatp1a4, 1a5, and 1a6 in mouse primary astrocytes with [6,7-^3H(N)]-estrone-3-sulfate (ES) by incubating the uptake solution (250 μL in HBSS) consisting of 5–400 μM of the substrate at 37 °C for 30 min. After incubation, the uptake was stopped by adding 500 μL of ice-cold HBSS, and the cells were washed two times with ice-cold HBSS (2 × 500 μL). The cells were then lysed with 500 μL of 0.1 M NaOH (60 min), the lysate was neutralized, and the protein was precipitated with acidic acetonitrile (ACN with 4.8% formic acid). The supernatants were analyzed by the high-performance liquid chromatography (HPLC) methods described below (T4) or by using a liquid scintillation counter (MicroBeta2 counter, PerkinElmer, Waltham, MA) (ES). The concentrations of T4 and ES were calculated from the spiked standard curve and normalized with the protein concentrations. The protein concentrations on each plate were determined as a mean of three samples by Bio-Rad Protein Assay, based on the Bradford dye-binding method, using bovine serum albumin (BSA) as a standard protein and measuring the absorbance (595 nm) by a multiplate reader (EnVision, PerkinElmer, Inc., Waltham, MA). The OATP-mediated uptake was confirmed by changing the pH of the uptake buffer in the absence of sodium ions, and in the case of OATP1C1 in human U-87MG cells, the uptake of T4 (100 μM) was studied in the presence of competing OATP1C1-ligands, diclofenac and flufenamic acid (100 μM), and in the case of oatp1a4/1a5/1a6 in mouse primary astrocytes, the uptake of ES (100 μM) was studied in the presence of competing OATO1A2-ligand, naringin (100 μM).
# Cellular uptake of prodrugs 1–8 was studied as described for L-thyroxine above by adding compounds at a concentration of 5–400 μM in prewarmed HBSS buffer (250 μL) on the cell layer and incubating at 37 °C for 30 min (uptake was linear with all compounds up to 30 min). Subsequently, the cells were washed three times with ice-cold HBSS and lysed with 500 μL of 0.1 M NaOH (60 min). The lysate was neutralized; the proteins were precipitated with acidic ACN (containing 4.8% formic acid), and the supernatants were analyzed by the (HPLC) methods described below. The concentrations of each prodrug normalized to protein concentration were calculated from the standard curve prepared by spiking known concentrations of compounds into ACN-precipitated cell lysate. […]
# [2] = system: mouse primary astrocytes; assay: Concentration-dependent cellular uptake into mouse primary astrocytes; assay type: cell-based; settings: 5–400 μM
# Method: The mouse primary astrocytes were isolated from neonatal pups (P0-2) of wild-type mice (C57BL/6JOlaHsd) as previously described, in compliance with the European Commission Directive 2010/63/EU and approved by the Institutional Animal Care and Use Committee of the University of Eastern Finland (Animal Usage Plan numbers: EKS-006-2019).[37] Neonatal pups were decapitated, and their brains were collected in an ice-cold HBSS buffer. After tissue dissociation and washing, cells were plated on poly-L-lysine-coated flasks and cultured in DMEM supplemented with FBS, L-glutamine, and penicillin/streptomycin (50 μg/mL) for 24 h. Debris and dead cells were removed by DPBS rinsing. After 7 days, microglial cells were removed, and the remaining astrocytic monolayer was collected by trypsinization using 0.05% trypsin-ethylenediaminetetraacetic acid (EDTA) (Gibco), pelleted, and stored at −80 °C for subsequent analysis. For the cell uptake experiments, the astrocytes were seeded on 24-well plates with a density of 10^4 cells/well 3 days before the experiments.
# as §1
# Cellular uptake of prodrugs 1–8 was studied as described for L-thyroxine above by adding compounds at a concentration of 5–400 μM in prewarmed HBSS buffer (250 μL) on the cell layer and incubating at 37 °C for 30 min (uptake was linear with all compounds up to 30 min). Subsequently, the cells were washed three times with ice-cold HBSS and lysed with 500 μL of 0.1 M NaOH (60 min). […]
# [3] = Enzymatic bioconversion in mouse liver S9 fraction; assay type: in vitro ADME; settings: after 5 h incubation, 100 μM prodrug, 37 °C, mean ± SD, n = 3
# Method: (§2) The rates of bioactivation of the prodrugs 1–8 in mouse and human liver S9 fractions, as well as in mouse primary astrocyte–microglia homogenate, were determined at +37 °C. The incubation mixtures were prepared by mixing liver S9 subcellular fraction or brain cell homogenate (final protein concentration 1.0 mg/mL) with isotonic Tris–HCl buffer (pH 7.4) and 10 mM prodrug stock solution in DMSO (the initial concentration of prodrugs was 100 μM and the DMSO concentration was […]). The mixture was incubated for 5 h, and the samples ([…]) were withdrawn at appropriate intervals. The enzymatic reaction was terminated by the addition of ice-cold acetonitrile ([…]), and the samples were centrifuged for 5 min at 12 000 rpm at room temperature and kept on ice until the supernatants were analyzed by the HPLC method described below. In blank reactions, the S9 fractions were replaced with the same volume of buffer. The pseudo-first-order half-lives (t1/2) for the rates of bioconversion of the prodrugs were calculated from the slope of the linear portion of the plotted logarithm of the remaining prodrug concentration versus time. The rates of bioactivation of prodrugs 1–8 in human plasma and mouse serum were determined at 37 °C as above by adding 10 mM stock solution of the prodrug to plasma/serum in a ratio of 1:10 and analyzed similarly to the samples from S9 fractions.
# (§3) The amount of prodrug 1–8 was determined by the HPLC system, which consisted of an Agilent 1100 binary pump (Agilent Technologies Inc., Wilmington, DE), an 1100 micro vacuum degasser, an HP 1050 Autosampler, and an HP 1050 variable wavelength detector, operated at 230–240 nm. The chromatographic separations were achieved on an Agilent Zorbax SB-C18 analytical column (4.4 mm × 150 mm, 5 μm) (Agilent Technologies Inc., Wilmington, DE) by using isocratic elution of water containing 0.1% formic acid (pH ca. 3.0) and acetonitrile containing 0.1% formic acid with ratios of 50:50, 30:70, 40:60, 50:50, 50:50, 40:60, 40:60, and 30:70 (v/v), respectively, for prodrug 1–8. […] The lower limit of quantification for prodrugs 1–8 was 0.20 μM. These HPLC methods were also accurate, precise, and selective over the range of 0.5–20 μM.
# [4] = Enzymatic bioconversion in human liver S9 fraction; assay type: in vitro ADME; settings: after 5 h incubation, 100 μM prodrug, 37 °C, mean ± SD, n = 3
# Method: as §2, §3
# [5] = Enzymatic bioconversion in mouse serum; assay type: in vitro ADME; settings: after 5 h incubation, 37 °C, mean ± SD, n = 3
# Method: as §2, §3
# [6] = Enzymatic bioconversion in human plasma; assay type: in vitro ADME; settings: after 5 h incubation, 37 °C, mean ± SD, n = 3
# Method: as §2, §3
# [7] = Enzymatic bioconversion in mouse primary astrocyte–microglia homogenate; assay type: in vitro ADME; settings: after 5 h incubation, 100 μM prodrug, 37 °C, mean ± SD, n = 3
# Method: as §2, §3
"Km ([2]; 30 min, 37 °C) [µM]","Enzymatic stability, remaining percentage, mouse liver S9 [3] [%]","Enzymatic stability, remaining percentage, human liver S9 [4] [%]","Enzymatic stability, remaining percentage, mouse serum [5] [%]","Enzymatic stability, remaining percentage, human plasma [6] [%]","Enzymatic stability, remaining percentage, mouse brain cell homogenate [7] [%]",SMILES,Km [1] [µM],"Vmax, cellular uptake, U-87MG [1] [nmol/min/mg]","Vmax, cellular uptake, astrocytes ([2]; 30 min, 37 °C) [nmol/min/mg]",Km ([1]; listed as PD1) [µM],"Vmax, ES uptake into mouse primary astrocytes ([2]; Figure 2B) [pmol/min/mg]"
1250 ± 230,,,,,,"N[C@@H](Cc1cc(I)c(Oc2cc(I)c(O)c(I)c2)c(I)c1)C(=O)O [L-Thyroxine T4, L-thyroxine]",111 ± 32,8.86 ± 1.33,9.7 ± 6.1,,
,74.30 ± 7.50,78.13 ± 2.17,94.32 ± 1.27,92.01 ± 5.02,85.76 ± 2.74,"CC(C(=O)Oc1c(I)cc(C[C@H](N)C(=O)O)cc1I)c1cccc(C(=O)c2ccccc2)c1 (mixture of isomers) [Prodrug 1, (2S)-2-Amino-3-(4-((2-(3-benzoylphenyl)propanoyl)oxy)-3,5-diiodophenyl)propanoic acid]",174,,,~174,
703 ± 227,,,,,,"C[C@]12CC[C@@H]3c4ccc(OS(=O)(=O)O)cc4CC[C@H]3[C@@H]1CCC2=O [ES, [6,7-^3H(N)]-estrone-3-sulfate, reference compound]",,,,,0.22 ± 0.05
